Target: T1, PDE3 (Homo sapiens, UniProt Q14432)
T1 construct: PDE3 partially purified from human platelets was used; from tissue; host or cells: human platelets
Assay: PDE3 enzyme inhibition assay
Format: biochemical
Conditions: 1% DMSO vehicle
From the text: In this example, a racemic mixture of monochloroflosequinan and the sulfone derivative of monochloroflosequinan were independently subjected to biochemical enzyme assays to determine their respective percent inhibition of a variety of phosphodiesterases (PDE1-PDE6). The methods used have been adapted from those described in the scientific literature, see Hidaka and Asano “Human blood platelet 3′:5′ cyclic nucleotide phosphodiesterase. Isolation of low-Km and high Km phosphodiesterase.” Biochem. Biophys. Acta 429:485 (1976); Nicholoson et al. “Differential modulation of tissue function and therapeutic potential of selective inhibitors of cyclic nucleotide phosphodiesterase isoenzymes” Trends Pharmacol. Sci. 12:19 (1991); Cortijo et al. “Investigation into the role of phosphodiesterase IV in bronchorelaxation, including studies with hyman bronchus.” Br. J. Pharmacol. 108:562 (1993); Baehr et al. “Isolation and characterization of cGMP phosphodiesterase from bovine rod outer segments.” J. Biol. Chem. 254:11669 (1979) and Gillespie and Beavo “Inhibition and stimulation of photoreceptor phosphodiesterase by dipyridamole and M&B 22,948” Molecular Pharm. 36:773 (1989). A brief summary of the conditions for each enzyme assay is provided below: • PDE1: PDE1 partially purified from bovine heart was used. The compounds were independently incubated with 13 μg PDE1 enzyme, 1.01 μM [^3H]cAMP+cAMP and CaCl2/calmodulin in Tris buffer pH 7.5 for 20 minutes at either 25° C. or 30° C. The reaction was terminated by boiling for 2 minutes, and the resulting AMP was converted to adenosine by addition of 10 mg/ml snake venom nucleotidase and further incubation at 30° C. for 10 minutes. Unhydrolyzed cAMP was bound to AGI-X2 resin, and the remaining [^3H]adenosine in the aqueous phase was quantitated by scintillation counting. • PDE2: PDE2 partially purified from human platelets was used. The compounds were independently incubated with 23 μg PDE2 enzyme, 25.1 μM [^3H]cAMP+cAMP in Tris buffer pH 7.5 for 20 minutes at either 25° C. or 30° C. […] Unhydrolyzed cAMP was bound to AGI-X2 resin, and the remaining [^3H]adenosine in the aqueous phase was quantitated by scintillation counting. • PDE3: PDE3 partially purified from human platelets was used. […] Unhydrolyzed cAMP was bound to AGI-X2 resin, and the remaining [^3H]adenosine in the aqueous phase was quantitated by scintillation counting. • PDE4: PDE4 partially purified from human U-937 pronocytic cells was used. […] Unhydrolyzed cAMP was bound to AGI-X2 resin, and the remaining [^3H]adenosine in the aqueous phase was quantitated by scintillation counting. • PDE5: PDE5 partially purified from human platelets was used. […]

T1 sequence (Q14432 whole entry): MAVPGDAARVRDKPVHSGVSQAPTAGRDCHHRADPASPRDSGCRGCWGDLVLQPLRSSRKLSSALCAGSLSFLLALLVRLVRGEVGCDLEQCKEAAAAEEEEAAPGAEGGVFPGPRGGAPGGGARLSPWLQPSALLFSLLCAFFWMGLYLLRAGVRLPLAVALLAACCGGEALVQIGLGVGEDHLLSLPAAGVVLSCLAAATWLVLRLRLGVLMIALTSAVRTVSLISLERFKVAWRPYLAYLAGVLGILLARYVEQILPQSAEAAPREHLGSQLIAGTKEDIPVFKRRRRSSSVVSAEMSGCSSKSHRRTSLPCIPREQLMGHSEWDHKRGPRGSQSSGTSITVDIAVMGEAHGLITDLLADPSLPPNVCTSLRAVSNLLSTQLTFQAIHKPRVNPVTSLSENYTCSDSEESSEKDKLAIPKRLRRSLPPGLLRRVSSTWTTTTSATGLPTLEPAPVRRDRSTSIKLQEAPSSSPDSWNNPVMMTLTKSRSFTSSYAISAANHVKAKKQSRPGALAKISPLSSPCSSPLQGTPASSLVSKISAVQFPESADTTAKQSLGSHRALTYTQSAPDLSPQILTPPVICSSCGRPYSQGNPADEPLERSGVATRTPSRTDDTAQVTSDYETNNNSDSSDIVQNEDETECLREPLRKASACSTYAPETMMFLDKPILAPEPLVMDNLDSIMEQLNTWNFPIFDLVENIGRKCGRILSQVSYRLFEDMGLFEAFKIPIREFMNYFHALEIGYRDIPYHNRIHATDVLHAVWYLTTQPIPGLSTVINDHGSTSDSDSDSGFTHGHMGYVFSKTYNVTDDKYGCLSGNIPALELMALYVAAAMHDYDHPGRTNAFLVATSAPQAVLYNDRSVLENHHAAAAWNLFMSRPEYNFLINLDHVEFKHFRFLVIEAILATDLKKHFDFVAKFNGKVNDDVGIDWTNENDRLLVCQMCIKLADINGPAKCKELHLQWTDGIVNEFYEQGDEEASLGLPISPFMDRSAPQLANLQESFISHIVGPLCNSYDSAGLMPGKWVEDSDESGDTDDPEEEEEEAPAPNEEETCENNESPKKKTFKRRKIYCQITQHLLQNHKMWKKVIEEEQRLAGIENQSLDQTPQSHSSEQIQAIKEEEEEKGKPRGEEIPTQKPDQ

inhibition of PDE3 (200 μM, 25° C.) | SMILES | other results
greater than 50% | Cn1cc([S@@+]([O-])CCl)c(=O)c2ccc(F)cc21 (single isomer, unassigned) [(−)-enantiomer of monochloroflosequinan] | –
greater than 50% | Cn1cc([S@+]([O-])CCl)c(=O)c2ccc(F)cc21 (single isomer, unassigned) [(+)-enantiomer of monochloroflosequinan] | –
– | Cn1cc([S+]([O-])C(Cl)Cl)c(=O)c2ccc(F)cc21 (stereo not shown) [dichloroflosequinan, 3-dichloromethylsulfinyl-7-fluoro-1-methyl-4-quinolone] | inhibition of PDE3 (varying concentrations, 25° C.): greater than 50%
– | Cn1cc([S+]([O-])CCl)c(=O)c2ccc(F)cc21 (racemic) [monochloroflosequinan, 3-chloromethylsulfinyl-7-fluoro-1-methyl-4-quinolone] | inhibition of PDE3 (100 uM, 30° C.): Significant inhibition
